Results: ChEMBL document CHEMBL5625219, “Design, synthesis fusidic acid derivatives alleviate acute lung injury via inhibiting MAPK/NF-κB/NLRP3 pathway” (Eur J Med Chem, 2023)
pIC50: −log10 of the molar value. Calls of active or inactive are those of the source. No cut-off for these calls is given here.

How the values were obtained:
RAW264.7 [1] = assay: Anti-inflammatory activity in LPS-stimulated mouse RAW264.7 cells assessed as inhibition of ROS production at 2.5 to 10 uM preincubated with compound for 1 hrs followed by LPS stimulation and measured after 23 hrs by DCFH-DA staining based flow cytometric analysis; assay type: functional, cell-based; details: dose 2.5-10 µM, time 24.0 hrs
RAW264.7 [2] = assay: Inhibition of MAPK signaling pathway in LPS-stimulated mouse RAW264.7 cells assessed as decrease in phosphorylation of ERK at 2.5 to 10 uM by Western blot analysis; assay type: cell-based; details: dose 2.5-10 µM
RAW264.7 [3] = assay: Inhibition of MAPK signaling pathway in LPS-stimulated mouse RAW264.7 cells assessed as decrease in phosphorylation of JNK at 2.5 to 10 uM by Western blot analysis; assay type: cell-based; details: dose 2.5-10 µM
Mus musculus [4] = assay: Anti-inflammatory activity in LPS-induced BALB/c mouse model of […] assessed as inhibition of LPS-induced increase in NO production in serum at 5 to 20 mg/kg, po preadministered with compound for 3 days followed by LPS stimulation for 6 hrs after 1 hrs compound administration on day 3 by Griess reagent based method; assay type: functional, organism-based; details: dose 5-20 mg/kg, time 3.0 day
RAW264.7 [5] = assay: Inhibition of NFkappaB signaling pathway in LPS-stimulated mouse RAW264.7 cells assessed as decrease in IkappaBalpha protein level at 2.5 to 10 uM by Western blot analysis; assay type: cell-based; details: dose 2.5-10 µM
Mus musculus [6] = assay: In vivo inhibition of MAPK activation in LPS-induced BALB/c mouse model of […] assessed as inhibition of ERK phosphorylation preadministered orally with compound for 3 days followed by LPS stimulation for 6 hrs after 1 hrs compound administration on day 3 by Western blot analysis; assay type: functional; details: dose 5-20 mg/kg, route po, time 3.0 day
Mus musculus [7] = assay: In vivo inhibition of NFkappaB activation in LPS-induced BALB/c mouse model of […] assessed as inhibition of IkappaBalpha degradation preadministered orally with compound for 3 days followed by LPS stimulation for 6 hrs after 1 hrs compound administration on day 3 by Western blot analysis; assay type: functional; details: dose 5-20 mg/kg, route po, time 3.0 day
Mus musculus [8] = assay: Anti-inflammatory activity in LPS-induced BALB/c mouse model of […] assessed as inhibition of LPS-induced increase in NO production in BALF at 5 to 20 mg/kg, po preadministered with compound for 3 days followed by LPS stimulation for 6 hrs after 1 hrs compound administration on day 3 by Griess reagent based method; assay type: functional, organism-based; details: dose 5-20 mg/kg, time 3.0 day
Mus musculus [9] = assay: Anti-inflammatory activity in LPS-induced BALB/c mouse model of […] assessed as inhibition of LPS-induced increase in IL-6 expression in serum at 5 to 20 mg/kg, po preadministered with compound for 3 days followed by LPS stimulation for 6 hrs after 1 hrs compound administration on day 3 by ELISA; assay type: functional, organism-based; details: dose 5-20 mg/kg, time 3.0 day
RAW264.7 [10] = assay: Cytotoxicity against mouse RAW264.7 cells assessed as reduction in cell viability at 30 uM incubated for 24 hrs by MTT assay relative to control; assay type: toxicity, cell-based; details: raw264.7, 24 h
RAW264.7 [11] = assay: Anti-inflammatory activity in LPS-stimulated mouse RAW264.7 cells assessed as reduction in COX-2 expression by Western blot analysis; assay type: functional, cell-based; details: dose 2.5-10 µM
Mus musculus [12] = assay: Anti-inflammatory activity in LPS-induced BALB/c mouse model of […] assessed as attenuation of inflammatory cell infiltration in lungs at 5 to 20 mg/kg, po preadministered with compound for 3 days followed by LPS stimulation for 6 hrs after 1 hrs compound administration on day 3 by H&E staining based analysis; assay type: functional, organism-based; details: dose 5-20 mg/kg, time 3.0 day
Mus musculus [13] = assay: Anti-inflammatory activity in LPS-induced BALB/c mouse model of […] assessed as inhibition of COX-2 expression preadministered orally with compound for 3 days followed by LPS stimulation for 6 hrs after 1 hrs compound administration on day 3 by Western blot analysis; assay type: functional, organism-based; details: dose 5-20 mg/kg, route po, time 3.0 day
[14] = target: NACHT, LRR and PYD domains-containing protein 3 (Mus musculus) (UniProt Q8R4B8); assay: Inhibition of NLRP3 inflammasome activation in LPS-stimulated mouse RAW264.7 cells assessed as downregulation of NLRP3 expression by Western blot analysis; assay type: cell-based; details: dose 2.5-10 µM
NACHT, LRR and PYD domains-containing protein 3 (Mus musculus), sequence (Q8R4B8 whole entry, the tested form may be a part): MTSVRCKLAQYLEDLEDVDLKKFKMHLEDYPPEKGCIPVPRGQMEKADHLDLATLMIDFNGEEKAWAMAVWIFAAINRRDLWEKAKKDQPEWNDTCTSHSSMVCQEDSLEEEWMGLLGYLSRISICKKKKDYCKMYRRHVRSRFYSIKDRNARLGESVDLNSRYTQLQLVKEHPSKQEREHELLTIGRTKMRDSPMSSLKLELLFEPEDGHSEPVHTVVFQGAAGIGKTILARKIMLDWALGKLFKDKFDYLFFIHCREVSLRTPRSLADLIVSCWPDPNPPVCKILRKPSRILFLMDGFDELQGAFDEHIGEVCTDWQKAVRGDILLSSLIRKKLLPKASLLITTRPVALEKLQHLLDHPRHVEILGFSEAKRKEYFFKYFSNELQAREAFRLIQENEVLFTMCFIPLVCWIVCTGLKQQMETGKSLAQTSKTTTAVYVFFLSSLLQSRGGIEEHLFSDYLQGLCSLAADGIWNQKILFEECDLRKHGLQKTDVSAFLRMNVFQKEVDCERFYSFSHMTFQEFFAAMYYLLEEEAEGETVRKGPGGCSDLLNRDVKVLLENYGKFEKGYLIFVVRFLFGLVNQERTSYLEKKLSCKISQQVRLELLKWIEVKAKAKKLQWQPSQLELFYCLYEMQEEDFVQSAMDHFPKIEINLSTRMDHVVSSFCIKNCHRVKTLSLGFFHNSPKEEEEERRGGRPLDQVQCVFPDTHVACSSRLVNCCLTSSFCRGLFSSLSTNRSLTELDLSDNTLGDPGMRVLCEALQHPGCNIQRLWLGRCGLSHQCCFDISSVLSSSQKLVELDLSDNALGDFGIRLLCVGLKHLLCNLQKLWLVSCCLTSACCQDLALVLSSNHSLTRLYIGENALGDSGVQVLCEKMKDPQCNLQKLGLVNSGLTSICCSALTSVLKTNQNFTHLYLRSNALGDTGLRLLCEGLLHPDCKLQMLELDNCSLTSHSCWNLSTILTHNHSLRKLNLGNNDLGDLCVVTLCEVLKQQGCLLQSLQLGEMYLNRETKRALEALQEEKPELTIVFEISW

[15] = Cytotoxicity against mouse RAW264.7 cells assessed as inhibition of cell growth incubated for 24 hrs by MTT assay; assay type: toxicity, cell-based
RAW264.7 [16] = assay: Anti-inflammatory activity in LPS-stimulated mouse RAW264.7 cells assessed as reduction in iNOS expression by Western blot analysis; assay type: functional, cell-based; details: dose 2.5-10 µM
Mus musculus [17] = assay: Anti-inflammatory activity in LPS-induced BALB/c mouse model of […] assessed as inhibition of LPS-induced increase in TNF-alpha expression in BALF at 5 to 20 mg/kg, po preadministered with compound for 3 days followed by LPS stimulation for 6 hrs after 1 hrs compound administration on day 3 by ELISA; assay type: functional, organism-based; details: dose 5-20 mg/kg, time 3.0 day
RAW264.7 [18] = assay: Inhibition of MAPK signaling pathway in LPS-stimulated mouse RAW264.7 cells assessed as decrease in phosphorylation of p38 MAPK at 2.5 to 10 uM by Western blot analysis; assay type: cell-based; details: dose 2.5-10 µM
RAW264.7 [19] = assay: Inhibition of NFkappaB signaling pathway in LPS-stimulated mouse RAW264.7 cells assessed as decrease in NFkappaB protein level at 2.5 to 10 uM by Western blot analysis; assay type: cell-based; details: dose 2.5-10 µM
Mus musculus [20] = assay: Anti-inflammatory activity in LPS-induced BALB/c mouse model of […] assessed as inhibition of LPS-induced increase in lung W/D ratio at 5 to 20 mg/kg, po preadministered with compound for 3 days followed by LPS stimulation for 6 hrs after 1 hrs compound administration on day 3; assay type: functional, organism-based; details: dose 5-20 mg/kg, time 3.0 day
RAW264.7 [21] = assay: cells; details: Mus musculus
Description: Anti-inflammatory activity in mouse RAW264.7 cells assessed as inhibition of LPS-induced IL-6 production preincubated with compound for 1 hrs followed by LPS stimulation and measured after 23 hrs by ELISA

RAW264.7 [22] = assay: Anti-inflammatory activity in LPS-stimulated mouse RAW264.7 cells assessed as inhibition of ROS production preincubated with compound for 1 hrs followed by LPS stimulation and measured after 23 hrs by DCFH-DA staining based confocal laser microscopic analysis; assay type: functional, cell-based; details: dose 2.5-10 µM, time 24.0 hrs
Mus musculus [23] = assay: In vivo inhibition of NLRP3 inflammasome activation in LPS-induced BALB/c mouse model of […] assessed as reduction in IL-1beta expression preadministered orally with compound for 3 days followed by LPS stimulation for 6 hrs after 1 hrs compound administration on day 3 by Western blot analysis; assay type: functional; details: dose 5-20 mg/kg, route po, time 3.0 day
Mus musculus [24] = assay: Anti-inflammatory activity in LPS-induced BALB/c mouse model of […] assessed as attenuation of lung alveolar hemorrhage at 5 to 20 mg/kg, po preadministered with compound for 3 days followed by LPS stimulation for 6 hrs after 1 hrs compound administration on day 3 by H&E staining based analysis; assay type: functional, organism-based; details: dose 5-20 mg/kg, time 3.0 day
RAW264.7 [25] = assay: cells; details: Mus musculus; remark: listed apart in the source
Description: Anti-inflammatory activity in mouse RAW264.7 cells assessed as inhibition of LPS-induced TNF-alpha production preincubated with compound for 1 hrs followed by LPS stimulation and measured after 23 hrs by ELISA

Mus musculus [26] = assay: Anti-inflammatory activity in LPS-induced BALB/c mouse model of […] assessed as inhibition of LPS-induced increase in TNF-alpha expression in serum at 5 to 20 mg/kg, po preadministered with compound for 3 days followed by LPS stimulation for 6 hrs after 1 hrs compound administration on day 3 by ELISA; assay type: functional, organism-based; details: dose 5-20 mg/kg, time 3.0 day
[27] = target: NACHT, LRR and PYD domains-containing protein 3 (Mus musculus) (UniProt Q8R4B8); assay: Inhibition of NLRP3 inflammasome activation in LPS-stimulated mouse RAW264.7 cells assessed as downregulation of IL-1beta expression by Western blot analysis; assay type: cell-based; details: dose 2.5-10 µM
Mus musculus [28] = assay: In vivo inhibition of NFkappaB activation in LPS-induced BALB/c mouse model of […] assessed as inhibition of NFkappaB degradation preadministered orally with compound for 3 days followed by LPS stimulation for 6 hrs after 1 hrs compound administration on day 3 by Western blot analysis; assay type: functional; details: dose 5-20 mg/kg, route po, time 3.0 day

Question: What does the source list for `CC(=O)O[C@H]1C[C@@]2(C)[C@@H](C[C@@H](O)[C@H]3[C@@]4(C)CC[C@@H](O)[C@@H](C)[C@@H]4CC[C@@]32C)/C1=C(\CCC=C(C)C)C(=O)OCc1cn(-c2ccccc2)nn1`?
Answer: Activity (RAW264.7 [1]): Active; inhibition (RAW264.7 [2]): Active; inhibition (RAW264.7 [3]): Active; Activity (Mus musculus [4]): Active; inhibition (RAW264.7 [5]): Active; inhibition (Mus musculus [6]): Dose-Dependent Effect; inhibition (Mus musculus [7]): Dose-Dependent Effect; Activity (Mus musculus [8]): Active; Activity (Mus musculus [9]): Active; Activity (RAW264.7 [10]): 102.79%; Activity (RAW264.7 [11]): Dose-Dependent Effect; Activity (Mus musculus [12]): Active; Activity (Mus musculus [13]): Dose-Dependent Effect; inhibition [14]: Dose-Dependent Effect; IC50 at 24 h [15]: 94.3 µM; Activity (RAW264.7 [16]): Dose-Dependent Effect; Activity (Mus musculus [17]): Active; inhibition (RAW264.7 [18]): Active; inhibition (RAW264.7 [19]): Active; Activity (Mus musculus [20]): Active; pIC50 (RAW264.7 [21]): 5.73; Activity (RAW264.7 [22]): Dose-Dependent Effect; inhibition (Mus musculus [23]): Dose-Dependent Effect; Activity (Mus musculus [24]): Active; pIC50 (RAW264.7 [25]): 5.41; Activity (Mus musculus [26]): Active; inhibition [27]: Dose-Dependent Effect; inhibition (Mus musculus [28]): Dose-Dependent Effect
